# Source: patent publication US20210393636A1, “TREATMENT OF CNS AND DEVELOPMENTAL DISORDERS USING HIGH DOSE 5-FORMYL-(6S)-TETRAHYDROFOLATE” (priority 2019, published 2021)
# Columns and labels:
# in vivo = experiment: in vivo
# Experimental: For this study, 4 mg/kg folate was administered as a single dose to 250-300 g male Wistar rats. […] For each form of folate 4 time points of 30 min, 1 h, 2 h and 4 h were evaluated. For each time point 2 rats were used. The folate form dissolved in 0.5 ml buffered saline was administered orally using a blunt needle attached to a 1 ml syringe. The rats were euthanized by CO2 inhalation.
# Blood was drawn cardiac puncture, allowed to clot for 30 min, serum separated, diluted in equal volume of 4% ascorbate pH 7.2 and kept frozen at −20 C. Folate forms in the serum was determined by HPLC and the peaks were quantified by comparing to known standards as described below.
# Folate standards (5-MTHF, FA, THF and Formyl-THF) and 13C-labeled stable isotope internal standards (13C5-5-MTHF, 13C5-FA and 13C-Formyl-THF) were obtained from Schircks Laboratories (Switzerland). Formic acid, ascorbic acid and dithiothreitol (DTT) were obtained from Fluka and Optima LC-MS grade methanol from Fisher Scientific. Stock standards for each folate metabolite and internal standards were prepared as 1 mmol/L solutions in water containing 2 mg/mL ascorbic acid and stored at −80° C. Microtiter plates used for were purchased from NUNC.
# Liquid chromatography electrospray ionization mass spectrometry (LC-ESI-MS/MS) analysis of plasma 5-MTHF, FA, THF, Formyl-THF was performed on a Sciex 5500QTRAP mass spectrometer (Foster City, Calif., USA) coupled with a Shimadzu ultra-high pressure Nexera chromatograph system (Kyoto, Japan). The MS/MS experiments were performed under positive electrospray ionization (+ESI) with multiple-reaction monitoring (MRM) using a Turbolon Spray electrospray source operating at a voltage of 5.5 kV and desolvation temperature of 500° C. The calibration curve was prepared in water containing 2 mg/mL ascorbic acid over a range of 12.5-400 nmol/L for each folate analyte.
# Sample preparation involved combining 50 µl of blank, standard, control or sample with 10μ1 62.5 mM dithiothreitol, 20 mg/ml ascorbic acid and 2.5 μM 13C5-5-MTHF, 13C5-FA, 13C-Formyl-THF in 1.5 mL Eppendorf tubes, mixed by vortex and incubated for 10 minutes at room temperature in the dark. Next, samples were deproteinized with 5 volumes of methanol containing 2 mg/ml of ascorbic acid and vortexed and centrifuged at 14800 rpm for 10 minutes. Supernatant was loaded in a 96-well microtiter plate for analysis. The samples were analyzed following injection of 10 μL of extract on a Synergi Hydro 4μ 150×3 mm with a 4×2 mm SecurityGuard column (Phenomenex, Calif., USA) maintained at 40° C. (Phenomenex) and eluted in a gradient with buffer A (100% water with 0.1% formic acid) and buffer B (100% Methanol with 0.1% formic acid). The flow rate was 0.5 mL/min, with a gradient over a total run time of 6 min: 0.0-2.0 min, 0-100% B; 2.5 min, 100% B; 2.6-6.0 min, 0% B.
# Total analytical analysis, including column re-equilibration, was 6 minutes. Eluent flow from the column was diverted to waste at the beginning and end of each run and was only directed to the source for the period from 1.5-3.5 minutes. The LC-MS/MS data was acquired and processed using Analyst 1.5.2 software (Sciex).
# Values reported include both D- and L-forms.
# [1] = Total folates in serum 24 h after oral administration of folate forms (Example 2); assay type: in vivo, rats; parameters: Total Folates in Serum (total 5-MTHF D- and L- plus folic acid): unit not given here; conditions: 4 mg/kg oral, 24 h
# Experimental: (§1) This study evaluated the difference in folate absorption in non-pregnant rats, pregnant rats, pregnant rats injected with a control antibody, and pregnant rats injected with antibody to the folate receptor alpha. Eight (8) rats were assigned to each group for a total of thirty-two (32) rats. Two rats within each group were administered a single oral dose of PGA, 5-methyl-(6S)-THF, folinic acid or 5-formyl-(6S)-THF as a liquid solution and sacrificed at 24-hours to evaluate folate absorption patterns. The total amount of each form of folate administered to each rat was 4 mg/kg.
# Serum was withdrawn immediately before the rat was sacrificed. For extraction of folate from serum, an aliquot of the serum was diluted in 3 volumes of phosphate buffer pH 5.5, placed in a boiling water bath for 10 min, cooled, the protein precipitate separated by centrifugation and the clear supernatant was assayed for folate concentration.
# [2] = Tissue distribution of folates 24 h after oral administration of folate forms (Example 2); assay type: in vivo, rats; conditions: 4 mg/kg oral, 24 h; for Total 5-MTHF + PGA in Brain: derived from cortex and cerebellum
# Experimental: as §1
# Additional analyses were performed in various tissues of the pregnant and non-pregnant rats. For tissues other than serum, each tissue was collected, weighed and stored at −20 C. For the folate assay each tissue was suspended in 3 volumes of phosphate buffer containing 2% ascorbic acid pH 7.4 and homogenized using a polytron probe. An aliquot of this homogenate was diluted 10 fold in PO4 buffer PH 5.5 containing 0.2% ascorbic acid, in a glass tube, sealed and placed in a boiling water bath for 10 min. The tube was cooled to room temperature, precipitate removed by centrifugation and the clear supernatant assayed for folate. Brain concentrations were derived from cortex and cerebellum.
# [3] = Tissue distribution of folates 24 h after oral administration of folate forms to rat pups, with and without FR Ab (Example 3); assay type: in vivo; conditions: PND 21 rat pups, 4 mg/kg oral, 24 h
# Experimental: To determine tissue distribution of orally administered folate forms in young rat pups and study the effect of folate receptor antibodies on this distribution. PND 21 rat pups weighing about 50 g were administered folate forms orally at a dose of 4 mg/kg. Animals were euthanized after 24 h and tissues collected for analyzing total methylfolate in each tissue to provide a measure of normal distribution.
# [4] = male, Wistar, rat, in vivo, po, 4 mg/kg
# [5] = male, Wistar, rat, in vivo, po, 4 mg/kg, 0.5 h
# [6] = male, Wistar, rat, in vivo, po, 4 mg/kg, 1 h
# [7] = male, Wistar, rat, in vivo, po, 4 mg/kg, 2 h
# [8] = male, Wistar, rat, in vivo, po, 4 mg/kg, 4 h
# [9] = non-pregnant rats, without antibody
# [10] = serum, 4 mg/kg single oral dose, 0.5 hr
# [11] = serum, 4 mg/kg single oral dose, 1 hr
# [12] = serum, 4 mg/kg single oral dose, 2 hr
# [13] = serum, 4 mg/kg single oral dose, 4 hr
structure (smiles),measurement,setting,value
"Nc1nc2ncc(CNc3ccc(C(=O)N[C@@H](CCC(=O)O)C(=O)O)cc3)nc2c(=O)[nH]1 [Folic Acid, pteroylglutamic acid]",concentration at 0.5 h,in vivo; [4],42.4 ng/mL
same,concentration at 1 h,in vivo; [4],236 ng/mL
same,concentration at 2 h,in vivo; [4],134 ng/mL
same,concentration at 4 h,in vivo; [4],121 ng/mL
same,5-MTHF,in vivo; [5],72.8 ng/mL
same,THF,in vivo; [5],10.7 ng/mL
same,Total Uptake,in vivo; [5],126.0 ng/mL
same,5-MTHF,in vivo; [6],112.9 ng/mL
same,THF,in vivo; [6],5.9 ng/mL
same,Total Uptake,in vivo; [6],354.3 ng/mL
same,5-MTHF,in vivo; [7],101.4 ng/mL
same,THF,in vivo; [7],7.9 ng/mL
same,Total Uptake,in vivo; [7],243.3 ng/mL
same,5-MTHF,in vivo; [8],109.7 ng/mL
same,THF,in vivo; [8],22.4 ng/mL
same,Total Uptake,in vivo; [8],252.7 ng/mL
"CN1c2c(nc(N)[nH]c2=O)NC[C@@H]1CNc1ccc(C(=O)N[C@@H](CCC(=O)O)C(=O)O)cc1 [5-methyl-(6S)-THF, 5-methyl-(6S)-tetrahydrofolate]",Total Folates in Serum (total 5-MTHF D- and L- plus folic acid),[1]; Non-pregnant rats,60.0
same,Total Folates in Serum (total 5-MTHF D- and L- plus folic acid),"[1]; pregnant rats, Control Ab + Form",143.3
same,Total Folates in Serum (total 5-MTHF D- and L- plus folic acid),"[1]; pregnant rats, FRAb + Form",190.9
same,Total Folates in Serum (total 5-MTHF D- and L- plus folic acid),"[1]; pregnant rats, Form Only",85.5
same,Total 5-MTHF + PGA in Cerebellum,[2]; [9],1.9
same,Total 5-MTHF + PGA in Cortex,[2]; [9],1.9
same,Total 5-MTHF + PGA in Kidney,[2]; [9],36.4
same,Total 5-MTHF + PGA in Liver,[2]; [9],75.4
same,Total 5-MTHF + PGA in Ovary,[2]; [9],7.2
same,Total 5-MTHF + PGA in Brain,[2]; [9],1.9
same,Total 5-MTHF + PGA in Embryo,"[2]; pregnant rats, + Control IgG",2.0 ng/mg
same,Total 5-MTHF + PGA in Kidney,"[2]; pregnant rats, + Control IgG",20.3 ng/mg
same,Total 5-MTHF + PGA in Liver,"[2]; pregnant rats, + Control IgG",148.5 ng/mg
same,Total 5-MTHF + PGA in Ovary,"[2]; pregnant rats, + Control IgG",14.9 ng/mg
same,Total 5-MTHF + PGA in Placenta,"[2]; pregnant rats, + Control IgG",2.3 ng/mg
same,Total 5-MTHF + PGA in Brain,"[2]; pregnant rats, + Control IgG",3.2 ng/mg
same,Total 5-MTHF + PGA in Embryo,"[2]; pregnant rats, + FRAb",1.9 ng/mg
same,Total 5-MTHF + PGA in Kidney,"[2]; pregnant rats, + FRAb",64.9 ng/mg
same,Total 5-MTHF + PGA in Liver,"[2]; pregnant rats, + FRAb",148.0 ng/mg
same,Total 5-MTHF + PGA in Ovary,"[2]; pregnant rats, + FRAb",27.0 ng/mg
same,Total 5-MTHF + PGA in Placenta,"[2]; pregnant rats, + FRAb",2.1 ng/mg
same,Total 5-MTHF + PGA in Brain,"[2]; pregnant rats, + FRAb",3.7 ng/mg
same,Total 5-MTHF + PGA in Embryo,"[2]; pregnant rats, w/o IgG",4.6 ng/mg
same,Total 5-MTHF + PGA in Kidney,"[2]; pregnant rats, w/o IgG",25.5 ng/mg
same,Total 5-MTHF + PGA in Liver,"[2]; pregnant rats, w/o IgG",58.6 ng/mg
same,Total 5-MTHF + PGA in Ovary,"[2]; pregnant rats, w/o IgG",6.6 ng/mg
same,Total 5-MTHF + PGA in Placenta,"[2]; pregnant rats, w/o IgG",6.4 ng/mg
same,Total 5-MTHF + PGA in Brain,"[2]; pregnant rats, w/o IgG",2.4 ng/mg
same,THF,in vivo; [10],4.4 ng/mL
same,Total Uptake,in vivo; [10],188.5 ng/mL
same,5-MTHF,"in vivo; serum, 4 mg/kg single oral dose, 0.5 hr, D- and L-forms",184.1 ng/mL
same,THF,in vivo; [11],9.0 ng/mL
same,Total Uptake,in vivo; [11],223.8 ng/mL
same,5-MTHF,"in vivo; serum, 4 mg/kg single oral dose, 1 hr, D- and L-forms",214.8 ng/mL
same,THF,in vivo; [12],8.7 ng/mL
same,Total Uptake,in vivo; [12],258.4 ng/mL
same,5-MTHF,"in vivo; serum, 4 mg/kg single oral dose, 2 hr, D- and L-forms",249.7 ng/mL
same,5-FoTHF,in vivo; [13],5.1 ng/mL
same,THF,in vivo; [13],19.6 ng/mL
same,Total Uptake,in vivo; [13],216.2 ng/mL
same,5-MTHF,"in vivo; serum, 4 mg/kg single oral dose, 4 hr, D- and L-forms",191.4 ng/mL
same,"Folate (mean), Cerebellum",[3]; + FRAb (100 ug IP 24 h prior),60.7 ng/mg
same,"Folate (mean), Cerebrum",[3]; + FRAb (100 ug IP 24 h prior),3.8 ng/mg
same,"Folate (mean), Kidney",[3]; + FRAb (100 ug IP 24 h prior),116.4 ng/mg
same,"Folate (mean), Liver",[3]; + FRAb (100 ug IP 24 h prior),250.34 ng/mg
same,"Folate (mean), Cerebellum",[3]; no FRAb,26.1 ng/mg
same,"Folate (mean), Cerebrum",[3]; no FRAb,4.3 ng/mg
same,"Folate (mean), Kidney",[3]; no FRAb,86.6 ng/mg
same,"Folate (mean), Liver",[3]; no FRAb,158.5 ng/mg
